Experimental data from US8268846B2, “Amino heterocyclic linked pyrimidine derivatives” (Abbott Laboratories, priority 2008, dated 2012).

Legend:
[1] = target: T1, histamine H4 receptor (Homo sapiens, UniProt Q9H3N8); test: In vitro histamine H4 potency in FLIPR (Ca2+ flux, HEK-293 cells coexpressing Gαqi5); format: cell-based; conditions: for Potency: Kb values for antagonists and inverse agonists, block of histamine-induced fluorescence
T1 construct: expressed in transfected cells
Source text: There are many methods available to show the effectiveness of compounds as histamine H4 receptor ligands. Histamine H4 receptors from mammalian species have been cloned. Methods to clone, express, and assess the potency and functional activity of such cloned genes are well known to those skilled in the art of molecular biology. Examples of methods of cloning and expressing histamine H4 receptors, and of assessing the potency and functional activity are described in Nguyen, et al. Molecular Pharmacology (2001) vol. 59 pp. 427-433; Zhu, et al. Molecular Pharmacology (2001) vol. 59 pp. 434-441; Coge, et al., Biochemical and Biophysical Research Communications (2001) vol. 284, pp. 301-309; Liu, et al. Molecular Pharmacology (2001) vol. 59 pp. 420-426; Liu, et al. Journal of Pharmacology and Experimental Therapeutics (2001) v. 299, pp. 121-130; and Thurmond, et al. Journal of Pharmacology and Experimental Therapeutics (2004) v. 309, pp. 404-413. In the present case, to determine the potency and effectiveness of representative compounds of this invention as histamine-H4 receptor ligands (H4 receptor ligands), the following tests were conducted according to previously described methods (see Esbenshade, et al., Biochemical Pharmacology (2004), vol. 68, pp. 933-945, and in Krueger, et al., Journal of Pharmacology and Experimental Therapeutics (2005) v. 314, pp. 271-281): histamine H4 receptors were cloned and stably expressed in HEK-293 (human embryonic kidney) cells coexpressing a Gαqi5. Before testing, cells are loaded with a Ca^+2 sensitive fluorescent dye, in this case Fluo-4 (Invitrogen, Carlsbad, Calif.). In the case of partial agonist or agonist ligands, addition of compound to the cells leads to the increase in intracellular Ca^+2 which is detected by FLIPR (Fluorescence Imaging Plate Reader; Molecular Devices, Sunnyvale, Calif.) technology. In a similar manner, compounds that are antagonists or inverse agonists, block the increase in fluorescence induced by the full histamine H4 agonist histamine, and partial agonists reduce the amount of fluorescence induced by the full histamine H4 agonist histamine. The fluorescence intensities measured before addition of the test compound are subtracted from the fluorescence intensities at later time points. Peak response values determined at each concentration of ligand are expressed as a percentage of the response obtained with the full agonist histamine. Concentration versus response data are analyzed to obtain compound potency as Kb values for antagonists and inverse agonists and as EC50 values for partial agonists.

[2] = target: T1, histamine H4 receptor; test: [3H]-histamine competition binding assay, membranes of HEK-293 cells transfected with histamine H4 receptor; conditions: displacing 3H-histamine; Ki by Cheng-Prusoff equation; read-out: Potency
Protocol: The potency of compounds of the invention in displacing ^3H-histamine in competition binding assays is assessed by methods described in Esbenshade, et al., Biochemical Pharmacology (2004), vol. 68, pp. 933-945. In this assay, membranes were prepared from HEK-293 cells transiently transfected with the pCINeo expression vector harboring the histamine H4 receptor by homogenization of the cells on ice in TE buffer (50 mM Tris-HCl buffer, pH 7.4, containing 5 mM EDTA), 1 mM benzamidine, 2 μg/mL aprotinin, 1 μg/mL leupeptin, and 1 μg/mL pepstatin. The homogenate was centrifuged at 40,000 g for 20 minutes at 4° C. This step was repeated, and the resulting pellet was resuspended in TE buffer. Aliquots were frozen at −70° C. until needed. On the day of assay, membranes were thawed and diluted with TE buffer. Competition radioligand binding assays were performed with increasing concentrations of test compound in the presence of [^3H]-histamine incubated at 25° C. for 1 hour in a total volume of 0.5 mL of 50 mM Tris, 5 mM EDTA, pH 7.4. All binding reactions were terminated by filtration under vacuum onto polyethylenimine (0.3%) presoaked Unifilters (PerkinElmer Life Sciences) or Whatman GF/B filters (Whatman, Clifton, N.J.) followed by three brief washes with 4 mL of ice-cold TE buffer. Bound radiolabel was determined by liquid scintillation counting. For all of the radioligand competition binding assays, IC50 values and Hill slopes were determined by Hill transformation of the data and Ki values were determined by the Cheng-Prusoff equation. The following table of representative histamine H4 receptor ligands is provided, along with potency values: […]

T1 sequence (Q9H3N8 whole entry, species assumed): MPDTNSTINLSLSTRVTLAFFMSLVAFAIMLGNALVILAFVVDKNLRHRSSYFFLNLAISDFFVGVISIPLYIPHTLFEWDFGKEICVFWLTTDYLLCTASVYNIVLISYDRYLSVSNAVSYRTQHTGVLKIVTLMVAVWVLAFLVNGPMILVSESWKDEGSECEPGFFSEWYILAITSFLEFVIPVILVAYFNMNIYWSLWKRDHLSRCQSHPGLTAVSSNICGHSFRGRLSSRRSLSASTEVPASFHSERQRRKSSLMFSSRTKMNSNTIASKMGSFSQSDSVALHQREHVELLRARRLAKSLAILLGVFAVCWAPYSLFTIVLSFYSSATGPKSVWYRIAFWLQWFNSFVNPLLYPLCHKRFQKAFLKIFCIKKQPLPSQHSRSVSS

| SMILES | Potency [1] | Ki [2] | EC50 ([1]; EC50 values for partial agonists) |
| --- | --- | --- | --- |
| Nc1nccc(NCCNc2nc(N)nc3c2CCCc2ccccc2-3)n1 [Example 1, N^4-{2-[(2-aminopyrimidin-4-yl)amino]ethyl}-6,7-dihydro-5H-benzo[6,7]cyclohepta[1,2-d]pyrimidine-2,4-diamine] | 204 nM | – | – |
| CN(CCNc1ccnc(N)n1)c1nc(N)nc2c1CCCc1ccccc1-2 [Example 2, N^4-{2-[(2-aminopyrimidin-4-yl)amino]ethyl}-N^4-methyl-6,7-dihydro-5H-benzo[6,7]cyclohepta[1,2-d]pyrimidine-2,4-diamine] | 25 nM | 3.5 nM | – |
| Nc1nccc(NCCCNc2nc(N)nc3c2CCCc2ccccc2-3)n1 [Example 3, N^4-{3-[(2-aminopyrimidin-4-yl)amino]propyl}-6,7-dihydro-5H-benzo[6,7]cyclohepta[1,2-d]pyrimidine-2,4-diamine] | 309 nM | – | – |
| Nc1ccnc(NCCNc2nc(N)nc3c2CCCc2ccccc2-3)n1 [Example 4, N^4-{2-[(4-aminopyrimidin-2-yl)amino]ethyl}-6,7-dihydro-5H-benzo[6,7]cyclohepta[1,2-d]pyrimidine-2,4-diamine] | 1349 nM | – | – |
| Nc1nccc(NCCNc2cc(-c3ccccc3)nc(N)n2)n1 [Example 5, N^4-{2-[(2-aminopyrimidin-4-yl)amino]ethyl}-6-phenylpyrimidine-2,4-diamine] | 8.7 nM | – | – |
| Nc1nccc(NCCNc2cc(-c3cccc(Cl)c3)nc(N)n2)n1 [Example 6, N^4-{2-[(2-aminopyrimidin-4-yl)amino]ethyl}-6-(3-chlorophenyl)pyrimidine-2,4-diamine] | 2.5 nM | 6.6 nM | – |
| Nc1nccc(NCCNc2cc(-c3cc(Cl)cc(Cl)c3)nc(N)n2)n1 [Example 7, N^4-{2-[(2-aminopyrimidin-4-yl)amino]ethyl}-6-(3,5-dichlorophenyl)pyrimidine-2,4-diamine] | 69 nM | – | – |
| COc1ccc(Cl)cc1-c1cc(NCCNc2ccnc(N)n2)nc(N)n1 [Example 8, N^4-{2-[(2-aminopyrimidin-4-yl)amino]ethyl}-6-(5-chloro-2-methoxyphenyl)pyrimidine-2,4-diamine] | 589 nM | – | – |
| Nc1nccc(NCCNc2cc(/C=C/c3ccccc3)nc(N)n2)n1 [Example 9, N^4-{2-[(2-aminopyrimidin-4-yl)amino]ethyl}-6-[(E)-2-phenylvinyl]pyrimidine-2,4-diamine] | 85 nM | 20 nM | – |
| Nc1nccc(NCCNc2nc(N)nc3c2CCCC32CCCC2)n1 [Example 10, N^4′-{2-[(2-aminopyrimidin-4-yl)amino]ethyl}-6′,7′-dihydro-5′H-spiro[cyclopentane-1,8′-quinazoline]-2′,4′-diamine] | 32 nM | 7.4 nM | – |
| Nc1nccc(NCCNc2nc(N)nc3c2CCCC(c2ccccc2)C3)n1 (stereo not shown) [Example 11, N^4-{2-[(2-aminopyrimidin-4-yl)amino]ethyl}-8-phenyl-6,7,8,9-tetrahydro-5H-cyclohepta[d]pyrimidine-2,4-diamine] | – | – | 2340 nM |
| Nc1nccc(NCCNc2ncnc3c2oc2ccccc23)n1 [Example 12, N^4-[2-([1]benzofuro[3,2-d]pyrimidin-4-ylamino)ethyl]pyrimidine-2,4-diamine] | 2089 nM | – | – |
